{"source": "patent US20120238604A1", "about": "“CYTOTOXIC COMPOUNDS” (Molecular Discovery Systems, priority 2009, published 2012)", "key": {"[1]": {"tested_on": "HeLa cells expressing H2B-GFP", "test": "Induction of mitotic arrest, phospho-histone 3 marker of mitosis", "assay_type": "cell-based, human", "conditions": "4 hours; 20 μM compound or 100 nM paclitaxel", "experimental": "(B) HeLa cells exposed for 4 hours to carrier (DMSO), 20 μM compound A1 or 100 nM paclitaxel were fixed and stained with anti-phospho-histone 3 marker of mitosis followed by fluorescent secondary antibody. The percentage of cells positive for phospho-histone 3 was determined by digital imaging and analysis of the fluorescence signals (B).\nFIG. 2 (B) The H2B-GFP-expressing HeLa cells were treated for 4 hours with carrier (0.1% (v/v) DMSO), 20 μM compound A1 or 100 nM paclitaxel in DMSO. The cells were then briefly rinsed with phosphate-buffered saline (PBS) prior to fixation with 4% para-formaldehyde at ambient temperature. The fixed cells were then stained with mouse monoclonal anti-phospho-histone 3 antibody and Alexafluor 546 nm goat anti-mouse antibody (diluted 400× from commercial stocks into PBS containing 10 mg/ml bovine serum albumin (BSA)). The GFP and 546 nm fluorescence signals were then captured with an IN Cell Analyser 1000 (GE Healthcare) and the percentage of cells stained with the anti-phospho-histone 3 antibody determined using Developer™ software (GE Healthcare)."}, "[2]": {"tested_on": "HeLa cells expressing H2B-GFP", "test": "Induction of mitotic arrest, phase-contrast microscopy", "assay_type": "cell-based, human", "conditions": "overnight; 20 μM compound B3 or 100 nM paclitaxel", "experimental": "(A) HeLa cells were exposed overnight to carrier (DMSO), 20 μM compound B3 or 100 nM paclitaxel, and visualized by phase-contrast microscopy.\nFIG. 2 (A) The H2B-GFP-expressing HeLa cells (grown under identical culture conditions as described in Example 1) were exposed overnight to carrier (0.1% (v/v) DMSO), 20 μM compound B3 or 100 nM paclitaxel in DMSO. The cells were then visualized using a phase-contrast microscope equipped for digital imaging."}, "[3]": {"tested_on": "HeLa cells expressing H2B-GFP", "test": "Perturbation of mitotic spindle organisation and assembly, anti-β-tubulin staining", "assay_type": "cell-based, human", "conditions": "20 μM, overnight", "experimental": "HeLa cells stably expressing a green fluorescent marker of nuclear DNA (H2B-GFP) were exposed overnight to carrier (DMSO) or 20 μM compounds A1 and B3. The cells were then fixed with methanol, stained with mouse monoclonal anti-β-tubulin antibody and Alexafluor 546 nm goat anti-mouse antibody, and fluorescent signal visualised by microscopy. The open circle indicates a cell with a perturbed mitotic spindle while the arrow indicates a cell with a mostly disassembled mitotic spindle.\nThese cells were exposed overnight to carrier (0.1% (v/v) DMSO) or an equivalent volume of DMSO containing compounds A1 and B3 (final concentration in the culture medium was 20 μM). The cells were then briefly rinsed with phosphate-buffered saline (PBS) prior to fixation with 100% methanol at −20° C. The fixed cells were then stained with mouse monoclonal anti-β-tubulin antibody and Alexafluor 546 nm goat anti-mouse antibody (diluted 400× from commercial stocks into PBS containing 10 mg/ml bovine serum albumin (BSA)). The GFP and 546 nm fluorescence signals were then visualised using a microscope equipped for digital confocal epifluorescence imaging. The open circle in FIG. 1 represents a cell with a perturbed mitotic spindle while the arrow points to a cell with a mostly unassembled mitotic spindle."}, "[4]": {"tested_on": "HeLa cells expressing H2B-GFP", "test": "Dose-dependent inhibition of cell proliferation, cell counts over 0-96 h", "assay_type": "cell-based, human", "conditions": "0.2-20 μM", "experimental": "FIG. 4. Dose-dependent inhibition of cell proliferation by compound B3. The proliferation of HeLa cells at decreasing concentrations (from 20 to 0.2 μM) of polokinase inhibitor (PKi), KSP inhibitor (STLC) and compound B3 was determined (relative to paclitaxel at 400 to 10 nM) by counting of the cells over time (0-96 h).\nFIG. 4 HeLa cells expressing H2B-GFP were plated in multi-well plates and exposed to 0.2-20 μM of polokinase inhibitor (PKi), KSP inhibitor (STLC) and compound B3, or 10-400 nM of paclitaxel. The number of cells at 0, 24, 48, 72 and 96 h of treatment was determined by imaging of the GFP signal in the plates with an IN Cell Analyser (GE Healthcare) followed by measurement of the number of intact cell nuclei using Developer™ software (GE Healthcare)."}, "[5]": {"tested_on": "HeLa cells expressing H2B-GFP", "test": "Induction of apoptosis, Annexin V binding", "assay_type": "cell-based, human", "conditions": "overnight; 20 μM compound A1 or 100 nM paclitaxel", "experimental": "HeLa cells were exposed overnight to 20 μM compound A1 or 100 nM paclitaxel, stained with a fluorescent Annexin V marker of apoptosis and visualised by epifluorescence microscopy following fixation.\nFIG. 3 The H2B-GFP-expressing HeLa cells were treated overnight with 20 μM compound A1 or 100 nM paclitaxel. The cells were then exposed to Annexin-V tagged with Alexafluor 546 nm and visualized using an epifluorescence microscope equipped for digital imaging following fixation with 4% para-formaldehyde."}, "[6]": {"tested_on": "Vascular endothelium MS-1 cells", "test": "Disruption of vascular endothelium cell adhesion (cell capillaries on Matrigel)", "assay_type": "cell-based", "conditions": "300 nM, 60 minutes", "experimental": "Following the addition of 300 nM compound C9 or an equivalent volume of DMSO carrier for 60 minutes, the extracellular matric plugs were imaged at 40× magnification by phase contrast microscopy."}, "[7]": {"tested_on": "HeLa cells expressing H2B-GFP", "test": "Induction of mitotic arrest (EC50), mitotic index by phospho-histone 3 staining", "assay_type": "cell-based", "conditions": "Homo sapiens, concentration for 50% induction of mitotic arrest, overnight, values in nM, read-out: EC50 (mitosis) (HeLa)", "experimental": "Parallel plates were treated overnight with the compounds to visualize the mitotic cells by staining with anti-phospho-histone 3 and Alexafluor 546 nm secondary antibodies after fixation with 4% paraformaldehyde. Following imaging of the nuclear GFP and phospho-histone 3 signals using an IN Cell Analyser (GE Healthcare), determination of the mitotic index by analysis of the images with Developer™ software (GE Healthcare) permitted estimation of the concentration that leads to 50% induction of the mitotic arrest (EC50). It can be seen that inhibition of cell proliferation and mitosis correlate well for the compounds tested."}, "[8]": {"tested_on": "HeLa cells expressing H2B-GFP", "test": "Inhibition of cell proliferation (GI50) by nuclear counts, IN Cell Analyser", "assay_type": "cell-based, human", "conditions": "HeLa", "experimental": "Table 3 HeLa cells expressing H2B-GFP were plated in 96-well plates and exposed to concentrations ranging from 100 μM to […] of the indicated compounds C1-C78. The number of cells was then determined every 24 hours by imaging of the plates using an IN Cell Analyser (GE Healthcare), followed by measurement of the number of intact cell nuclei using Developer™ software (GE Healthcare). Drug concentrations that cause 50% inhibition of cell proliferation (GI50) were determined from the nuclear counts using GraphPad Prism software or ED50v10 freeware."}, "[9]": {"tested_on": "purified porcine brain tubulin", "test": "In vitro microtubule assembly, light scattering at 350 nm", "assay_type": "biochemical", "conditions": "3 and 6 μM, 37° C.", "experimental": "In vitro polymerisation of purified porcine brain tubulin at 37° C. in the presence of compound C9 (3 and 6 μM), 15 μM nocodazole, 2 μM vinblastine or an equal volume of carrier DMSO was measured over time as light scattering at 350 nm."}, "[10]": {"tested_on": "Vascular endothelium MS-1 cells", "test": "Disruption of the microtubule cytoskeleton of vascular endothelium cells", "assay_type": "cell-based", "conditions": "100 nM, 120 minutes", "description": "After staining with Hoescht, TRITC-phalloidin, anti-beta tubulin antibody and Alexafluor 488 nm secondary antibody, the cells were imaged at 400× magnification by epifluorescence microscopy."}}}
{"compound": "COc1ccccc1/C=N/NC(=S)Nc1cccc(C)c1", "note": "[B3, 2-METHOXYBENZALDEHYDE N-(3-METHYLPHENYL)THIOSEMICARBAZONE]", "values": [{"measurement": "Accumulation of cells stained with phospho-histone 3 marker of mitosis", "setting": "[1]", "result": "accumulation of cells that are stained with the phospho-histone 3 marker of mitosis"}, {"measurement": "Accumulation of cells with mitotic phenotype", "setting": "[2]", "result": "pronounced accumulation of round and translucent cells representing the mitotic phenotype"}, {"measurement": "Effect on mitotic spindle organisation and assembly", "setting": "[3]", "result": "profoundly perturbs spindle function by blocking the assembly of spindle microtubule fibres"}, {"measurement": "Concentration potently blocking cell proliferation", "setting": "[4]", "result": "> 1", "unit": "µM"}]}
{"compound": "CC(=O)O[C@H]1C(=O)[C@@]2(C)[C@H]([C@H](OC(=O)c3ccccc3)[C@]3(O)C[C@H](OC(=O)[C@H](O)[C@@H](NC(=O)c4ccccc4)c4ccccc4)C(C)=C1C3(C)C)[C@]1(OC(C)=O)CO[C@@H]1C[C@@H]2O", "note": "[paclitaxel, reference compound]", "values": [{"measurement": "Accumulation of cells stained with phospho-histone 3 marker of mitosis", "setting": "[1]", "result": "accumulation of cells that are stained with the phospho-histone 3 marker of mitosis"}, {"measurement": "Induction of apoptotic cells (Annexin-V binding)", "setting": "[5]", "result": "induction of apoptotic cells"}, {"measurement": "Accumulation of cells with mitotic phenotype", "setting": "[2]", "result": "pronounced accumulation of round and translucent cells representing the mitotic phenotype"}]}
{"compound": "COc1ccccc1/C=N/NC(=S)Nc1ccccc1C(F)(F)F", "note": "[C9]", "values": [{"measurement": "Disruption of vascular endothelium cell adhesion", "setting": "[6]", "result": "Disruption of vascular endothelium cell adhesion"}, {"measurement": "EC50", "setting": "[7]", "result": 10, "unit": "nM"}, {"measurement": "Anti-proliferative activity (effect of substitution, in words)", "setting": "[8]; text comment on Table 3", "result": "greatly increase the anti-proliferative activity"}, {"measurement": "GI50", "setting": "[8]; Homo sapiens, concentration causing 50% inhibition of cell proliferation, nuclear counts every 24 hours", "result": 10, "unit": "nM"}, {"measurement": "Inhibition of in vitro microtubule assembly", "setting": "[9]", "result": "Dose-dependent inhibition of in vitro microtubule assembly"}, {"measurement": "Disruption of the microtubule cytoskeleton", "setting": "[10]", "result": "Disruption of the microtubule cytoskeleton of vascular endothelium cells"}]}
